Reference: patent publication US20110207793A1, “1-AMINOCYCLOHEXANE DERIVATIVES FOR THE TREATMENT OF SLEEP DISORDERS” (priority 2008, published 2011)

Columns and labels:
[1] = tested on: subjects with subjective tinnitus of at least moderate severity; assay: Double-blind placebo-controlled pilot trial of neramexane in tinnitus: TBF-12; format: in vivo, human; details: final daily doses of 50 or 75 mg, after 16-week double-blind treatment (Visit 6); distinct from placebo or low-dose (25 mg)
Experimental: (§1) The objective of this pilot project was to conduct a clinical trial to assess the efficacy of neramexane as a treatment for tinnitus. The primary objective of this study was to compare the efficacy, tolerability and safety of neramexane mesylate at three different dosages (25, 50 or 75 mg/d) with placebo in subjects with subjective tinnitus of at least moderate severity.
(§2) In a double-blind, multicenter, randomized, placebo-controlled, parallel-group study, the efficacy of neramexane in subjects suffering from tinnitus of at least moderate severity was assessed. Approximately 100 patients, who fulfilled particular inclusion criteria and met none of particular exclusion criteria, were randomized to each of four double-blind treatment groups (neramexane mesylate 25, 50, 75 mg/d or placebo), resulting in approximately 400 patients in total.
The double-blind, 16-week treatment period consisted of a 4-week uptitration period and a 12-week fixed-dose treatment period at unchanged maintenance b.i.d. dosing. In case of poor tolerability, however, the investigator could consider a dose reduction by 25 mg/d (or placebo, respectively). […]
Visit 1 (screening): After signing the consent form, the subject underwent a physical examination and clinical laboratory testing. Patient eligibility for the study was evaluated via a check of inclusion/exclusion criteria. […]

[2] = tested on: subjects with subjective tinnitus of at least moderate severity; assay: Double-blind placebo-controlled pilot trial of neramexane in tinnitus: question 12/5 (sleep item) of the structured tinnitus interview; format: in vivo, human; details: for TI Sleep item 12/5: Prevented (%) / TI Sleep item 12/5: Prevented n / TI Sleep item 12/5: affected (%) / TI Sleep item 12/5: affected n / TI Sleep item 12/5: no effect (%) / TI Sleep item 12/5: no effect n: ITT-OC
Experimental: as §1, §2
The double-blind, 16-week treatment period consisted of a 4-week uptitration period and a 12-week fixed-dose treatment period at unchanged maintenance b.i.d. dosing. In case of poor tolerability, however, the investigator could consider a dose reduction by 25 mg/d (or placebo, respectively). After the treatment phase, there was a 4-week follow-up period with no active treatment and concomitant therapy restrictions. In total, this study involved seven study visits: screening, baseline, and at the end of weeks 4, 8, 12, 16, and 20.
Visit 2 (baseline): The subject was asked about adverse events and changes in concomitant medication/disease, which events/changes were documented. The subject was evaluated for study eligibility based on a review of the inclusion/exclusion criteria. Trial procedures as well as allowed and forbidden concomitant medications were reviewed with the subject. An initial Tinnitus Interview was conducted. The subject also completed a TBF-12, HADS-D Questionnaire and GÜF Questionnaire (if applicable). The subject was enrolled in the study and study medication (placebo or neramexane) was dispensed as described below.
Visit 6 (Week 16, end of treatment). This visit occurred at the end of the 12-week fixed-dose double-blind treatment period. The subject was asked about adverse events and changes in concomitant medication/disease, which changes are documented. A clinical laboratory evaluation was performed. A follow-up Tinnitus Interview was conducted, and the subject completed a TBF-12, HADS-D Questionnaire and GÜF Questionnaire (if applicable). Pure-tone audiometry (air conduction) was also conducted.
Visit 7 (Week 20): This visit occurred at the end of the 4-week follow-up period after the last study medication dose. Review of concomitant medications as well as the occurrence of adverse events since the last visit is conducted with subject. A follow-up Tinnitus Interview was conducted, and the subject completed a TBF-12, HADS-D Questionnaire and GÜF Questionnaire (if applicable).
Neramexane mesylate immediate release tablets (12.5 mg and 25 mg) and matching placebo tablets were administered as film coated tablets.
Study medication was dispensed at Visit 2 (baseline, day, 0). Each patient received one blister box containing 5 blister cards (including one reserve blister) of double-blind study medication (i.e., 32 tablets). Subjects were instructed to take 2 tablets twice daily (4 tablets/d), beginning the day after dispensing of the study medication, until they returned for their next study visit (Visit 3). For those subjects assigned to receive active medication, some placebo tablets were incorporated into the dosing regimen to ensure blinding during the uptitration period. The target fixed-maintenance dose of 25, 50, or 75 mg neramexane mesylate/d was administered starting with the fifth week of double-blind treatment and was continued throughout the study. […]

[3] = target: alpha9/alpha10 nicotinic receptor (Rattus norvegicus, UniProt P43144+Q9JLB5); details: Plazas, et al., Eur J Pharmacol., 2007; cited from earlier work
Sequence of alpha9/alpha10 nicotinic receptor (P43144 26-479): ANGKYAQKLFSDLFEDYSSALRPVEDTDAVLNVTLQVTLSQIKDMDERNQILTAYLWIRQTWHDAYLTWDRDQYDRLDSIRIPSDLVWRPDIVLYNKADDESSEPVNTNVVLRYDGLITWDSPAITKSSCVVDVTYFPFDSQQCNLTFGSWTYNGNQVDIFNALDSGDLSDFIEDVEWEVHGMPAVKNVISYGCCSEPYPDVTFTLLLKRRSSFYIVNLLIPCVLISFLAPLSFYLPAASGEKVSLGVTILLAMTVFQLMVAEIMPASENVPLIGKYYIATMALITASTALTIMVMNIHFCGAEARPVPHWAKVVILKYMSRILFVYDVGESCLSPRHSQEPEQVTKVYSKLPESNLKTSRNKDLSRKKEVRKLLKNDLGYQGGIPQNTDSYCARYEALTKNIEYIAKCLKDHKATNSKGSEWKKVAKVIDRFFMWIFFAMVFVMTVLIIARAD
Sequence of alpha9/alpha10 nicotinic receptor (Q9JLB5 25-447): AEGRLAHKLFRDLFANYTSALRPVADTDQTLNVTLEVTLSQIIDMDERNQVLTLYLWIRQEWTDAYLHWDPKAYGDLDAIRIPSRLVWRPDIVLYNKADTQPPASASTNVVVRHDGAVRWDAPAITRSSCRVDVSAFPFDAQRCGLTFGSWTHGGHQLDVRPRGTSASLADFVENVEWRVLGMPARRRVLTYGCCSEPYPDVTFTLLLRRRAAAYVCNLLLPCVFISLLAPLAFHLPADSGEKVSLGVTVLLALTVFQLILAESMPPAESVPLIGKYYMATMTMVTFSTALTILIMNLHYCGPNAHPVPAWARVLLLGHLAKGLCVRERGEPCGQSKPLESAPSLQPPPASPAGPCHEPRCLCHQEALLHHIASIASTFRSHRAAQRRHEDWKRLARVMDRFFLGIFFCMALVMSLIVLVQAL

[4] = Follow-Up (Change from Baseline), 25 mg/d, N = 100
[5] = Follow-Up (Change from Baseline), 50 mg/d, N = 95
[6] = Follow-Up (Change from Baseline), 75 mg/d, N = 89
[7] = Week 16 Visit (Change from Baseline), 25 mg/d, N = 89
[8] = Week 16 Visit (Change from Baseline), 50 mg/d, N = 80
[9] = Week 16 Visit (Change from Baseline), 75 mg/d, N = 64

For `CC1(C)CC(C)(C)CC(C)(N)C1` [Neramexane, 1-amino-1,3,3,5,5-pentamethylcyclohexane], the “improvement of tinnitus as measured by the TBF-12” value [1] was “clear improvement of their tinnitus”, the “TI Sleep item 12/5: Prevented (%)” value ([2]; Baseline, 25 mg/d, N = 106) was 12.3% and the “TI Sleep item 12/5: Prevented n” value ([2]; Baseline, 25 mg/d, N = 106) was 13. The “TI Sleep item 12/5: affected (%)” value ([2]; Baseline, 25 mg/d, N = 106) was 64.2%, the “TI Sleep item 12/5: affected n” value ([2]; Baseline, 25 mg/d, N = 106) was 68 and the “TI Sleep item 12/5: no effect (%)” value ([2]; Baseline, 25 mg/d, N = 106) was 23.6%. The “TI Sleep item 12/5: no effect n” value ([2]; Baseline, 25 mg/d, N = 106) was 25, the “TI Sleep item 12/5: Prevented (%)” value ([2]; Baseline, 50 mg/d, N = 106) was 6.6% and the “TI Sleep item 12/5: Prevented n” value ([2]; Baseline, 50 mg/d, N = 106) was 7. For the same compound, the “TI Sleep item 12/5: affected (%)” value ([2]; Baseline, 50 mg/d, N = 106) was 66.0%, the “TI Sleep item 12/5: affected n” value ([2]; Baseline, 50 mg/d, N = 106) was 70 and the “TI Sleep item 12/5: no effect (%)” value ([2]; Baseline, 50 mg/d, N = 106) was 27.4%. For the same compound, the “TI Sleep item 12/5: no effect n” value ([2]; Baseline, 50 mg/d, N = 106) was 29, the “TI Sleep item 12/5: Prevented (%)” value ([2]; Baseline, 75 mg/d, N = 99) was 8.1% and the “TI Sleep item 12/5: Prevented n” value ([2]; Baseline, 75 mg/d, N = 99) was 8. For the same compound, the “TI Sleep item 12/5: affected (%)” value ([2]; Baseline, 75 mg/d, N = 99) was 68.7%, the “TI Sleep item 12/5: affected n” value ([2]; Baseline, 75 mg/d, N = 99) was 68 and the “TI Sleep item 12/5: no effect (%)” value ([2]; Baseline, 75 mg/d, N = 99) was 23.2%. The “TI Sleep item 12/5: no effect n” value ([2]; Baseline, 75 mg/d, N = 99) was 23, the “TI Sleep item 12/5: Prevented (%)” value [2, 4] was 3.0% and the “TI Sleep item 12/5: Prevented n” value [2, 4] was 3. The “TI Sleep item 12/5: affected (%)” value [2, 4] was 65.0%, the “TI Sleep item 12/5: affected n” value [2, 4] was 65 and the “TI Sleep item 12/5: no effect (%)” value [2, 4] was 32.0%. For the same compound, the “TI Sleep item 12/5: no effect n” value [2, 4] was 32, the “TI Sleep item 12/5: Prevented (%)” value [2, 5] was 1.1% and the “TI Sleep item 12/5: Prevented n” value [2, 5] was 1. The “TI Sleep item 12/5: affected (%)” value [2, 5] was 57.9%, the “TI Sleep item 12/5: affected n” value [2, 5] was 55 and the “TI Sleep item 12/5: no effect (%)” value [2, 5] was 41.1%. For the same compound, the “TI Sleep item 12/5: no effect n” value [2, 5] was 39, the “TI Sleep item 12/5: Prevented (%)” value [2, 6] was 3.4% and the “TI Sleep item 12/5: Prevented n” value [2, 6] was 3. For the same compound, the “TI Sleep item 12/5: affected (%)” value [2, 6] was 57.3%, the “TI Sleep item 12/5: affected n” value [2, 6] was 51 and the “TI Sleep item 12/5: no effect (%)” value [2, 6] was 39.3%. For the same compound, the “TI Sleep item 12/5: no effect n” value [2, 6] was 35, the “TI Sleep item 12/5: Prevented (%)” value [2, 7] was 2.2% and the “TI Sleep item 12/5: Prevented n” value [2, 7] was 2. For the same compound, the “TI Sleep item 12/5: affected (%)” value [2, 7] was 65.2%, the “TI Sleep item 12/5: affected n” value [2, 7] was 58 and the “TI Sleep item 12/5: no effect (%)” value [2, 7] was 32.6%. For the same compound, the “TI Sleep item 12/5: no effect n” value [2, 7] was 29, the “TI Sleep item 12/5: Prevented (%)” value [2, 8] was 1.3% and the “TI Sleep item 12/5: Prevented n” value [2, 8] was 1. For the same compound, the “TI Sleep item 12/5: affected (%)” value [2, 8] was 48.8%, the “TI Sleep item 12/5: affected n” value [2, 8] was 39 and the “TI Sleep item 12/5: no effect (%)” value [2, 8] was 50.0%. The “TI Sleep item 12/5: no effect n” value [2, 8] was 40, the “TI Sleep item 12/5: Prevented (%)” value [2, 9] was 6.3% and the “TI Sleep item 12/5: Prevented n” value [2, 9] was 4. The “TI Sleep item 12/5: affected (%)” value [2, 9] was 50.0%, the “TI Sleep item 12/5: affected n” value [2, 9] was 32 and the “TI Sleep item 12/5: no effect (%)” value [2, 9] was 43.8%. For the same compound, the “TI Sleep item 12/5: no effect n” value [2, 9] was 28, the “improvement of sleep, question 12/5 of the structured tinnitus interview” value ([2]; final daily doses of 50 or 75 mg, after 16 weeks of double-blind treatment, distinct from placebo or low-dose (25 mg)) was “clear improvement of their sleep” and the “activity at alpha9/alpha10 nicotinic receptor” value [3] was “activity as an alpha9/alpha10 nicotinic receptor antagonist”.
